# Reference: patent US12590091B2, “1H-pyrrolo[3,2-C]pyridine and 1H-pyrrolo[2,3-C]pyridine derivatives as TLR9 inhibitors for the treatment of fibrosis” (BRISTOL-MYERS SQUIBB COMPANY, priority 2020, dated 2026)
# Target: T1, human TLR9 (Homo sapiens, UniProt Q9NR96)
# T1 construct: host or cells: HEK-Blue cells
# T1 sequence (Q9NR96 26-1032): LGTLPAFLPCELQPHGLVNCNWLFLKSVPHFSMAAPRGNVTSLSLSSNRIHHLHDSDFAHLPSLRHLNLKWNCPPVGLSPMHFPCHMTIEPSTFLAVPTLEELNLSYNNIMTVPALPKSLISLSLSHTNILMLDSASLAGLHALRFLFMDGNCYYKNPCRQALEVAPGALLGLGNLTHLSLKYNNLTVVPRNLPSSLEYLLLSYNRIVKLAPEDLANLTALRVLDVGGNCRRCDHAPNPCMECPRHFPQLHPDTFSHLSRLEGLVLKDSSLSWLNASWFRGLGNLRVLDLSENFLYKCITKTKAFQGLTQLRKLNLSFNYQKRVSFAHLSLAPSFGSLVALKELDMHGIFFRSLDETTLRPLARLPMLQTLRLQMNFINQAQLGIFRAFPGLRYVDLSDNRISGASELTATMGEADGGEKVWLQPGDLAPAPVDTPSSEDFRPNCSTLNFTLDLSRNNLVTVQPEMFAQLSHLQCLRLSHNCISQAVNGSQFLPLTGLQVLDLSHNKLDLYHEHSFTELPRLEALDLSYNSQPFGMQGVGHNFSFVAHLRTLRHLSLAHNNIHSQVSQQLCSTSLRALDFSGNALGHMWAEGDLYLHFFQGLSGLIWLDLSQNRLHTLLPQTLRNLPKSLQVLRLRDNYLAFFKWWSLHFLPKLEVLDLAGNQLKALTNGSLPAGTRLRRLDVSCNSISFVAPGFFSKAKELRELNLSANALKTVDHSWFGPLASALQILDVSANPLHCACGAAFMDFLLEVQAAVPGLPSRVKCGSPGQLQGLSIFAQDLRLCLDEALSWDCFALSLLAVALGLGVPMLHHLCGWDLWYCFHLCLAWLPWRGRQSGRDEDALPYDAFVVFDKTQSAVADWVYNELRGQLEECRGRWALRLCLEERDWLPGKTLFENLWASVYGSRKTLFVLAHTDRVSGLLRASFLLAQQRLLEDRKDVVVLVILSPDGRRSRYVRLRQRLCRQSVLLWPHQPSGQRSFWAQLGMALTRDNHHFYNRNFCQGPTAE
# Experiment: TLR9 inhibition reporter assay (HEK-Blue cells, SEAP reporter)
# Assay type: cell-based
# Conditions: HEK-Blue cells overexpressing human TLR9, stimulated with ODN2006 5 nM, 22 hour incubation
# Method: TLR7/8/9 Inhibition Reporter Assays
# HEK-Blue™-cells (Invivogen) overexpressing human TLR7, TLR8 or TLR9 receptors were used for screening inhibitors of these receptors using an inducible SEAP (secreted embryonic alkaline phosphatase) reporter gene under the control of the IFN-β minimal promoter fused to five NF-κB and AP-1-binding sites. Briefly, cells are seeded into Greiner 384 well plates (15000 cells per well for TLR7, 20,000 for TLR8 and 25,000 for TLR9) and then treated with test compounds in DMSO to yield a final dose response concentration range of 0.05 nM-50 μM. […] After a 22 hour incubation at 37° C., 5% CO2, SEAP levels are determined with the addition of HEK-Blue™ Detection reagent (Invivogen), a cell culture medium that allows for detection of SEAP, according to manufacturer's specifications. The percent inhibition is determined as the % reduction in the HEK-Blue signal present in wells treated with agonist plus DMSO alone compared to wells treated with a known inhibitor.
row,SMILES,IC50 [nM]
1,"Cc1nc(-c2cc(F)c(N3CCN(CC(C)C)CC3)c(F)c2)cc2c1cc(-c1ccc(S(C)(=O)=O)cc1)n2C [Example 84, 6-(3,5-difluoro-4-(4-isobutylpiperazin-1-yl)phenyl)-1,4-dimethyl-2-(4-(methylsulfonyl)phenyl)-1H-pyrrolo[3,2-c]pyridine]",626
2,"Cc1nc(-c2ccc(N3CCS(=O)(=O)CC3)cc2)cc2c1cc(-c1ccc(S(C)(=O)=O)cc1)n2C [Example 85, 4-(4-(1,4-dimethyl-2-(4-(methylsulfonyl)phenyl)-1H-pyrrolo[3,2-c]pyridin-6-yl)phenyl)thiomorpholine 1,1-dioxide]",2400
3,"Cc1nc(-c2ccc(N3CCOCC3)cc2)cc2c1cc(-c1ccc(S(C)(=O)=O)cc1)n2C [Example 86, 4-(4-(1,4-dimethyl-2-(4-(methylsulfonyl)phenyl)-1H-pyrrolo[3,2-c]pyridin-6-yl)phenyl)morpholine]",1070
4,"Cc1nc(-c2ccc(C3(O)CC4CCC(C3)N4C(C)C)cc2F)cc2c1cc(-c1ccc(S(C)(=O)=O)cc1)n2C [Example 103, (1R,3r,5S)-3-(4-(1,4-dimethyl-2-(4-(methylsulfonyl)phenyl)-1H-pyrrolo[3,2-c]pyridin-6-yl)-3-fluorophenyl)-8-isopropyl-8-azabicyclo[3.2.1]octan-3-ol]",296
5,"COc1nc(-c2ccc(N3CCN(C(C)C)CC3)cc2)cc2c1cc(-c1ccc(S(C)(=O)=O)cc1)n2C [Example 119, 6-[4-(4-isopropylpiperazin-1-yl)phenyl]-4-methoxy-1-methyl-2-(4-methylsulfonylphenyl) pyrrolo[3,2-c]pyridine]",543
6,"COc1nc(-c2ccc(CN3CCN(C(C)C)CC3)cc2)cc2c1cc(-c1ccc(S(C)(=O)=O)cc1)n2C [Example 126, 6-(4-((4-isopropylpiperazin-1-yl)methyl)phenyl)-4-methoxy-1-methyl-2-(4-(methylsulfonyl)phenyl)-1H-pyrrolo[3,2-c]pyridine]",1260
7,"CC(C)N1CCN(Cc2ccc(-c3cc4c(cc(-c5ccc(S(C)(=O)=O)cc5)n4C)c(N4CCOCC4)n3)cc2)CC1 [Example 127, 4-(6-(4-((4-isopropylpiperazin-1-yl)methyl)phenyl)-1-methyl-2-(4-(methylsulfonyl)phenyl)-1H-pyrrolo[3,2-c]pyridin-4-yl)morpholine]",422

# Other lines, results leading:
row,IC50 [nM],SMILES
1,58,"Cc1nc(-c2ccc(N3CCN(CCc4ccc(I)cc4)CC3)cc2)cc2c1cc(-c1ccc(S(C)(=O)=O)cc1)n2C [Example 110, 6-(4-(4-(4-iodophenethyl)piperazin-1-yl)phenyl)-1,4-dimethyl-2-(4-(methylsulfonyl)phenyl)-1H-pyrrolo[3,2-c]pyridine]"
2,113,"Cc1nc(-c2ccc(N3CCN(CCc4ccc(Br)cc4)CC3)cc2)cc2c1cc(-c1ccc(S(C)(=O)=O)cc1)n2C [Example 111, 6-(4-(4-(4-bromophenethyl)piperazin-1-yl)phenyl)-1,4-dimethyl-2-(4-(methylsulfonyl)phenyl)-1H-pyrrolo[3,2-c]pyridine]"
3,87,"Cc1nc(-c2ccc(N3CCN(Cc4ccc(I)cc4)CC3)cc2)cc2c1cc(-c1ccc(S(C)(=O)=O)cc1)n2C [Example 112, 6-(4-(4-(4-iodobenzyl)piperazin-1-yl)phenyl)-1,4-dimethyl-2-(4-(methylsulfonyl)phenyl)-1H-pyrrolo[3,2-c]pyridine]"
4,153,"Cc1nc(-c2ccc(N3CCN(Cc4ccc(Br)cc4)CC3)cc2)cc2c1cc(-c1ccc(S(C)(=O)=O)cc1)n2C [Example 113, 6-(4-(4-(4-bromobenzyl)piperazin-1-yl)phenyl)-1,4-dimethyl-2-(4-(methylsulfonyl)phenyl)-1H-pyrrolo[3,2-c]pyridine]"
